Values quoted from earlier work in patent US20080095831A1, “TOPICAL FORMULATION OF […] […] COMPOSITION FOR PERCUTANEOUS ABSORPTION OF […] ACTIVE AGENT” (priority 2006, published 2008).
Counter-ions that a name gives are not always drawn.

| Structure (SMILES) | solubility in water (in words) | further results |
| --- | --- | --- |
| CN(C)CCC=C1c2ccccc2CCc2ccccc21 [Amitriptline] | freely soluble | – |
| CCCCC(C)(O)C/C=C/[C@H]1[C@H](O)CC(=O)[C@@H]1CCCCCCC(=O)OC (mixture of isomers) [Misoprostol] | water-soluble | – |
| CC(=O)[C@H]1CC[C@H]2[C@@H]3CCC4=CC(=O)CC[C@]4(C)[C@H]3CC[C@]12C [Progesterone] | insoluble | – |
| CC/C(=C(\c1ccccc1)c1ccc(OCCN(C)C)cc1)c1ccccc1 [Tamoxifen citrate] | – | collagen production (keloid cells): decrease; keloid fibroblast production (keloid cells): inhibit; effect on keloid cells (keloid cells; concentration of about 0.01%): deadly effect |
| NC(=O)c1cccnc1 [nicotinamide] | freely soluble | – |
| O=[N+]([O-])O[C@H]1CO[C@H]2[C@@H]1OC[C@H]2O[N+](=O)[O-] [Isosorbide dinitrate] | sparingly soluble | – |
| Clc1cccc(Cl)c1N=C1NCCN1 [clonidine hydrochloride] | freely soluble | – |
